“Also recorded” adds a separate entry of the source.
Experiments:
Assay type in all cases: in vivo
Tygress tomato plants [1] = assay: Foliar nutrient concentration 2 weeks after treatment, greenhouse tomato (Examples 4-6); conditions: for Foliar Mn concentration: tomato leaves 2 weeks after Mn treatment
Method in brief: (§1)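 Tygress tomato in 2-gallon pots of micronutrient-poor medium (negligible Fe, Zn, Mn, Cu) in greenhouse; foliar treatments at 5 WAT in 200 mL/plant water with non-ionic surfactant. Newest non-applied leaves analysed 2 weeks before and after treatment; marketable fruit harvested three times from 10 WAT, graded. RCBD, 6 replications, LSD 5%.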

Tygress tomato plants [2] = assay: Yields of tomato fruits, greenhouse (Examples 4-6); conditions: for Marketable yield: tomato fruits
Method in brief: as §1

Tygress tomato plants [3] = assay: Foliar nutrient concentration at 6 WAT, open-field tomato (Examples 7-10); conditions: 6 WAT, open field; for Foliar B concentration of tomato plants / Foliar Ca concentration of tomato plants / Foliar Cu concentration of tomato plants / Foliar Fe concentration of tomato plants / Foliar K concentration of tomato plants / Foliar Mg concentration of tomato plants / Foliar Mn concentration of tomato plants / Foliar N concentration of tomato plants / Foliar P concentration of tomato plants / Foliar Zn concentration of tomato plants: product rate as Table 17
Method in brief: (§2)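 Open-field 2008 trial, Balm FL; 'Tygress' tomato and 'Patriot' pepper transplants on drip-fed raised beds. Foliar micronutrient sprays at 3 and 5 WAT (BIOX-CM at 4 and 5), 60 gal/acre with surfactant. Youngest mature leaves sampled 6 WAT; RCBD, 5 replications, Fisher's LSD 5%.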

[4] = test system: Patriot bell pepper plants; assay: Foliar nutrient concentration at 6 WAT, open-field bell pepper (Examples 7-10); conditions: 6 WAT, open field; for Foliar B concentration of bell pepper plants / Foliar Ca concentration of bell pepper plants / Foliar Cu concentration of bell pepper plants / Foliar Fe concentration of bell pepper plants / Foliar K concentration of bell pepper plants / Foliar Mg concentration of bell pepper plants / Foliar Mn concentration of bell pepper plants / Foliar N concentration of bell pepper plants / Foliar P concentration of bell pepper plants / Foliar Zn concentration of bell pepper plants: product rate as Table 17
Method in brief: as §2

[5] = test system: Patriot bell pepper plants; assay: Marketable yield, open-field bell pepper (Examples 7-10); conditions: open field; lb/acre/season: BIOX-Z 1.3, Cu 6.7, M 23.0, Fe 3.2, INC 4.0, INZ 0.6, CM 10.0, GZ 1.0, GF 4.0, EDZ 1.4, EDM 23.0
Method in brief: as §2

Tygress tomato plants [6] = assay: Nutrient concentration of tomato fruits at 10 WAT, open field (Examples 7-10); conditions: 10 WAT; open field; product rate as Table 17
Method in brief: as §2

[7] = Mn 0.31 lb/acre, 2 weeks after Mn treatment
[8] = Mn 0.62 lb/acre, 2 weeks after Mn treatment
[9] = Mn 1.23 lb/acre, 2 weeks after Mn treatment
[10] = Mn 2.46 lb/acre, 2 weeks after Mn treatment
[11] = Zn 0.4 lb/acre, 2 weeks after Zn treatment

CSCCC(O)C(=O)[O-].CSCCC(O)C(=O)[O-].[Mn+2] (centres unmarked) [BIOX-M, Mn-HMTBA]
B concentration in tomato leaves (Tygress tomato plants [1]; [7]): 22 ppm | Ca concentration in tomato leaves (Tygress tomato plants [1]; [7]): 0.6% | Cu concentration in tomato leaves (Tygress tomato plants [1]; [7]): 5 ppm | Fe concentration in tomato leaves (Tygress tomato plants [1]; [7]): 109 ppm | K concentration in tomato leaves (Tygress tomato plants [1]; [7]): 3.1% | Mg concentration in tomato leaves (Tygress tomato plants [1]; [7]): 0.3% | N concentration in tomato leaves (Tygress tomato plants [1]; [7]): 3.5% | P concentration in tomato leaves (Tygress tomato plants [1]; [7]): 0.4% | Zn concentration in tomato leaves (Tygress tomato plants [1]; [7]): 31 ppm | Foliar Mn concentration (Tygress tomato plants [1]; Mn 0.31 lb/acre): 22.9 b ppm | B concentration in tomato leaves (Tygress tomato plants [1]; [8]): 24 ppm | Ca concentration in tomato leaves (Tygress tomato plants [1]; [8]): 0.6% | Cu concentration in tomato leaves (Tygress tomato plants [1]; [8]): 5 ppm | Fe concentration in tomato leaves (Tygress tomato plants [1]; [8]): 110 ppm | K concentration in tomato leaves (Tygress tomato plants [1]; [8]): 3.2% | Mg concentration in tomato leaves (Tygress tomato plants [1]; [8]): 0.3% | N concentration in tomato leaves (Tygress tomato plants [1]; [8]): 3.5% | P concentration in tomato leaves (Tygress tomato plants [1]; [8]): 0.5% | Zn concentration in tomato leaves (Tygress tomato plants [1]; [8]): 32 ppm | Foliar Mn concentration (Tygress tomato plants [1]; Mn 0.62 lb/acre): 29.5 b ppm | B concentration in tomato leaves (Tygress tomato plants [1]; [9]): 25 ppm | Ca concentration in tomato leaves (Tygress tomato plants [1]; [9]): 0.6% | Cu concentration in tomato leaves (Tygress tomato plants [1]; [9]): 5 ppm | Fe concentration in tomato leaves (Tygress tomato plants [1]; [9]): 112 ppm | K concentration in tomato leaves (Tygress tomato plants [1]; [9]): 3.1% | Mg concentration in tomato leaves (Tygress tomato plants [1]; [9]): 0.3% | N concentration in tomato leaves (Tygress tomato plants [1]; [9]): 3.5% | P concentration in tomato leaves (Tygress tomato plants [1]; [9]): 0.5% | Zn concentration in tomato leaves (Tygress tomato plants [1]; [9]): 28 ppm | Foliar Mn concentration (Tygress tomato plants [1]; Mn 1.23 lb/acre): 60.6 a ppm | B concentration in tomato leaves (Tygress tomato plants [1]; [10]): 23 ppm | Ca concentration in tomato leaves (Tygress tomato plants [1]; [10]): 0.6% | Cu concentration in tomato leaves (Tygress tomato plants [1]; [10]): 5 ppm | Fe concentration in tomato leaves (Tygress tomato plants [1]; [10]): 114 ppm | K concentration in tomato leaves (Tygress tomato plants [1]; [10]): 3.2% | Mg concentration in tomato leaves (Tygress tomato plants [1]; [10]): 0.3% | N concentration in tomato leaves (Tygress tomato plants [1]; [10]): 3.6% | P concentration in tomato leaves (Tygress tomato plants [1]; [10]): 0.4% | Zn concentration in tomato leaves (Tygress tomato plants [1]; [10]): 33 ppm | Foliar Mn concentration (Tygress tomato plants [1]; Mn 2.46 lb/acre): 69.2 a ppm | Marketable tomato yield compared with non-treated control (in words) (Tygress tomato plants [2]; BIOX-M at 1.23 lb/acre or more, BIOX-EDM at 2.0 lb/acre, Mn-sulfate at 1.0 lb/acre): significantly higher than the non-treated control | Marketable yield (Tygress tomato plants [2]; Mn 0.31 lb/acre): 2.2 b lb/plant | Marketable yield (Tygress tomato plants [2]; Mn 0.62 lb/acre): 2.1 b lb/plant | Marketable yield (Tygress tomato plants [2]; Mn 1.23 lb/acre): 4.2 a lb/plant | Marketable yield (Tygress tomato plants [2]; Mn 2.46 lb/acre): 4.3 a lb/plant | Foliar concentration of Mn of tomato plants, statement (Tygress tomato plants [3]): significant increase; also recorded: highest foliar concentration of Mn; also recorded: significantly higher foliar Mn content | Foliar concentration of P of tomato plants compared to control, statement (Tygress tomato plants [3]): significant increase | Foliar B concentration of tomato plants (Tygress tomato plants [3]): 70 ppm | Foliar Ca concentration of tomato plants (Tygress tomato plants [3]): 1.7% | Foliar Cu concentration of tomato plants (Tygress tomato plants [3]): 417 ppm | Foliar Fe concentration of tomato plants (Tygress tomato plants [3]): 88 ppm | Foliar K concentration of tomato plants (Tygress tomato plants [3]): 4.6 b % | Foliar Mg concentration of tomato plants (Tygress tomato plants [3]): 0.56% | Foliar Mn concentration of tomato plants (Tygress tomato plants [3]): 470 a ppm | Foliar N concentration of tomato plants (Tygress tomato plants [3]): 4.4% | Foliar P concentration of tomato plants (Tygress tomato plants [3]): 0.19 b % | Foliar Zn concentration of tomato plants (Tygress tomato plants [3]): 266 b ppm | Foliar B concentration of bell pepper plants [4]: 59 ppm | Foliar Ca concentration of bell pepper plants [4]: 4.2% | Foliar Cu concentration of bell pepper plants [4]: 462 ppm | Foliar Fe concentration of bell pepper plants [4]: 124 ppm | Foliar K concentration of bell pepper plants [4]: 3.4% | Foliar Mg concentration of bell pepper plants [4]: 0.52% | Foliar Mn concentration of bell pepper plants [4]: 436 ppm | Foliar N concentration of bell pepper plants [4]: 4.4% | Foliar P concentration of bell pepper plants [4]: 0.25% | Foliar Zn concentration of bell pepper plants [4]: 63 ppm | Marketable yield, Bell Pepper [5]: 6.3 ton/acre | B concentration of tomato fruits (Tygress tomato plants [6]): 23 ppm | Ca concentration of tomato fruits (Tygress tomato plants [6]): 0.2% | Cu concentration of tomato fruits (Tygress tomato plants [6]): 23 b ppm | Fe concentration of tomato fruits (Tygress tomato plants [6]): 81 b ppm | K concentration of tomato fruits (Tygress tomato plants [6]): 8.0% | Mg concentration of tomato fruits (Tygress tomato plants [6]): 0.37% | Mn concentration of tomato fruits (Tygress tomato plants [6]): 43 b ppm | N concentration of tomato fruits (Tygress tomato plants [6]): 4.2% | P concentration of tomato fruits (Tygress tomato plants [6]): 0.65% | Zn concentration of tomato fruits (Tygress tomato plants [6]): 209 b ppm

EDTA chelated zinc [BIOX-EDZ]
B concentration in tomato leaves (Tygress tomato plants [1]; [11]): 21 ppm | Ca concentration in tomato leaves (Tygress tomato plants [1]; [11]): 0.6% | Cu concentration in tomato leaves (Tygress tomato plants [1]; [11]): 7 ppm | Fe concentration in tomato leaves (Tygress tomato plants [1]; [11]): 95 ppm | K concentration in tomato leaves (Tygress tomato plants [1]; [11]): 3.6% | Mg concentration in tomato leaves (Tygress tomato plants [1]; [11]): 0.3% | Mn concentration in tomato leaves (Tygress tomato plants [1]; [11]): 54 ppm | N concentration in tomato leaves (Tygress tomato plants [1]; [11]): 3.6% | P concentration in tomato leaves (Tygress tomato plants [1]; [11]): 0.5% | Foliar Zn concentration (Tygress tomato plants [1]; Zn 0.4 lb/acre, tomato leaves 2 weeks after Zn treatment): 214.bc ppm | Marketable yield (Tygress tomato plants [2]; Zn 0.4 lb/acre): 3.5 a lb/plant | Foliar Zn concentration of tomato plants, statement (Tygress tomato plants [3]): All treatments except BIOX-EDZ resulted in significantly higher foliar Zn concentrations | Foliar B concentration of tomato plants (Tygress tomato plants [3]): 44 ppm | Foliar Ca concentration of tomato plants (Tygress tomato plants [3]): 1.9% | Foliar Cu concentration of tomato plants (Tygress tomato plants [3]): 371 ppm | Foliar Fe concentration of tomato plants (Tygress tomato plants [3]): 90 ppm | Foliar K concentration of tomato plants (Tygress tomato plants [3]): 5.2% | Foliar Mg concentration of tomato plants (Tygress tomato plants [3]): 0.69% | Foliar Mn concentration of tomato plants (Tygress tomato plants [3]): 207 ppm | Foliar N concentration of tomato plants (Tygress tomato plants [3]): 4.9% | Foliar P concentration of tomato plants (Tygress tomato plants [3]): 0.24% | Foliar Zn concentration of tomato plants (Tygress tomato plants [3]): 310 bc ppm | Foliar Zn concentration of bell pepper plants compared to control, statement [4]: significantly higher foliar concentration of Zn | Foliar B concentration of bell pepper plants [4]: 59 ppm | Foliar Ca concentration of bell pepper plants [4]: 4.2% | Foliar Cu concentration of bell pepper plants [4]: 421 ppm | Foliar Fe concentration of bell pepper plants [4]: 121 ppm | Foliar K concentration of bell pepper plants [4]: 3.2% | Foliar Mg concentration of bell pepper plants [4]: 0.47% | Foliar Mn concentration of bell pepper plants [4]: 284 ppm | Foliar N concentration of bell pepper plants [4]: 4.2% | Foliar P concentration of bell pepper plants [4]: 0.24% | Foliar Zn concentration of bell pepper plants [4]: 234 a ppm | Marketable yield, Bell Pepper [5]: 8.1 ton/acre | B concentration of tomato fruits (Tygress tomato plants [6]): 22 ppm | Ca concentration of tomato fruits (Tygress tomato plants [6]): 0.2% | Cu concentration of tomato fruits (Tygress tomato plants [6]): 23 ppm | Fe concentration of tomato fruits (Tygress tomato plants [6]): 82 ppm | K concentration of tomato fruits (Tygress tomato plants [6]): 8.5% | Mg concentration of tomato fruits (Tygress tomato plants [6]): 0.37% | Mn concentration of tomato fruits (Tygress tomato plants [6]): 43 ppm | N concentration of tomato fruits (Tygress tomato plants [6]): 4.4% | P concentration of tomato fruits (Tygress tomato plants [6]): 0.66% | Zn concentration of tomato fruits (Tygress tomato plants [6]): 1018 ppm

Reference: patent publication US20110098177A1, “METHODS AND COMPOSITIONS OF PLANT MICRONUTRIENTS” (NOVUS INTERNATIONAL INC., priority 2006, published 2011)
